Reference: ChEMBL document CHEMBL5303573, “Mapping human microbiome drug metabolism by gut bacteria and their genes” (Nature, 2019)

What was measured:
[1] = The drug is tested on Collinsella aerofaciens strain: ATCC25986 for biotransformation. The drug concentrations were measured before and after a 12-h incubation by liquid-chromatography-coupled mass spectrometry (LC–MS); details: 2 µM
[2] = The drug is tested on Collinsella intestinalis strain: DSM13280 for biotransformation. The drug concentrations were measured before and after a 12-h incubation by liquid-chromatography-coupled mass spectrometry (LC–MS); details: 2 µM
[3] = The drug is tested on Bacteroides finegoldii strain: DSM17565 for biotransformation. The drug concentrations were measured before and after a 12-h incubation by liquid-chromatography-coupled mass spectrometry (LC–MS); details: 2 µM
[4] = The drug is tested on Bacteroides pectinophilus strain: ATCC43243 for biotransformation. The drug concentrations were measured before and after a 12-h incubation by liquid-chromatography-coupled mass spectrometry (LC–MS); details: 2 µM
[5] = The drug is tested on Parabacteroides merdae strain: ATCC43184 for biotransformation. The drug concentrations were measured before and after a 12-h incubation by liquid-chromatography-coupled mass spectrometry (LC–MS); details: 2 µM
[6] = The drug is tested on Anaerotruncus colihominis strain: DSM17241 for biotransformation. The drug concentrations were measured before and after a 12-h incubation by liquid-chromatography-coupled mass spectrometry (LC–MS); details: 2 µM
[7] = The drug is tested on Blautia hansenii strain: DSM20583 for biotransformation. The drug concentrations were measured before and after a 12-h incubation by liquid-chromatography-coupled mass spectrometry (LC–MS); details: 2 µM
[8] = The drug is tested on Clostridium sporogenes strain: ATCC15579 for biotransformation. The drug concentrations were measured before and after a 12-h incubation by liquid-chromatography-coupled mass spectrometry (LC–MS); details: 2 µM
[9] = The drug is tested on Clostridium symbiosum strain: ATCC14940 for biotransformation. The drug concentrations were measured before and after a 12-h incubation by liquid-chromatography-coupled mass spectrometry (LC–MS); details: 2 µM
[10] = The drug is tested on Eubacterium rectale strain: ATCC33656 for biotransformation. The drug concentrations were measured before and after a 12-h incubation by liquid-chromatography-coupled mass spectrometry (LC–MS); details: agathobacter rectalis, 2 µM
[11] = The drug is tested on Edwardsiella tarda strain: ATCC23685 for biotransformation. The drug concentrations were measured before and after a 12-h incubation by liquid-chromatography-coupled mass spectrometry (LC–MS); details: 2 µM
[12] = The drug is tested on Escherichia coli strain: BW25113 for biotransformation. The drug concentrations were measured before and after a 12-h incubation by liquid-chromatography-coupled mass spectrometry (LC–MS); details: 2 µM
[13] = The drug is tested on Providencia stuartii strain: ATCC25827 for biotransformation. The drug concentrations were measured before and after a 12-h incubation by liquid-chromatography-coupled mass spectrometry (LC–MS); details: 2 µM
[14] = bacteroides eggerthii, 12 h, 2 µM
Description: The drug is tested on Bacteroides eggerthii strain: DSM20697 for biotransformation. The drug concentrations were measured before and after a 12-h incubation by liquid-chromatography-coupled mass spectrometry (LC–MS)

[15] = bacteroides fragilis, 12 h, 2 µM
Description: The drug is tested on Bacteroides fragilis strain: DS-208 for biotransformation. The drug concentrations were measured before and after a 12-h incubation by liquid-chromatography-coupled mass spectrometry (LC–MS)

[16] = enterocloster bolteae, 12 h, 2 µM
Description: The drug is tested on Clostridium bolteae strain: ATCCBAA-613 for biotransformation. The drug concentrations were measured before and after a 12-h incubation by liquid-chromatography-coupled mass spectrometry (LC–MS)

[17] = limosilactobacillus reuteri cf48-3a, 12 h, 2 µM
Description: The drug is tested on Lactobacillus reuteri CF48-3A strain: BEI HM-102 for biotransformation. The drug concentrations were measured before and after a 12-h incubation by liquid-chromatography-coupled mass spectrometry (LC–MS)

[18] = roseburia intestinalis, 12 h, 2 µM
Description: The drug is tested on Roseburia intestinalis strain: L1-82 for biotransformation. The drug concentrations were measured before and after a 12-h incubation by liquid-chromatography-coupled mass spectrometry (LC–MS)

[19] = victivallis vadensis, 12 h, 2 µM
Description: The drug is tested on Victivallis vadensis strain: ATCC BAA-548 for biotransformation. The drug concentrations were measured before and after a 12-h incubation by liquid-chromatography-coupled mass spectrometry (LC–MS)

[20] = parabacteroides johnsonii, 12 h, 2 µM
Description: The drug is tested on Parabacteroides johnsonii strain: DSM18315 for biotransformation. The drug concentrations were measured before and after a 12-h incubation by liquid-chromatography-coupled mass spectrometry (LC–MS)

Row | SMILES | Bacterial Biotransformation [1] | Bacterial Biotransformation [2] | Bacterial Biotransformation [3] | Bacterial Biotransformation [4] | Bacterial Biotransformation [5] | Bacterial Biotransformation [6] | Bacterial Biotransformation [7] | Bacterial Biotransformation [8] | Bacterial Biotransformation [9] | Bacterial Biotransformation [10] | Bacterial Biotransformation [11] | Bacterial Biotransformation [12] | Bacterial Biotransformation [13] | Bacterial Biotransformation [14] | Bacterial Biotransformation [15] | Bacterial Biotransformation [16] | Bacterial Biotransformation [17] | Bacterial Biotransformation [18] | Bacterial Biotransformation [19] | Bacterial Biotransformation [20]
1 | OC(CCN1CCCCC1)(c1ccccc1)C1CC2C=CC1C2 (configuration not stated) [BIPERIDEN] | Compound NOT metabolized | Compound NOT metabolized | Compound NOT metabolized | Compound NOT metabolized | Compound NOT metabolized | Compound NOT metabolized | Compound NOT metabolized | Compound NOT metabolized | Compound NOT metabolized | Compound NOT metabolized | Compound NOT metabolized | Compound NOT metabolized | Compound NOT metabolized | Compound NOT metabolized | Compound NOT metabolized | Compound NOT metabolized | Compound NOT metabolized | Compound NOT metabolized | Compound NOT metabolized | 
2 | Cc1nc2n(c(=O)c1CCN1CCC(c3noc4cc(F)ccc34)CC1)CCCC2O (configuration not stated) [PALIPERIDONE] | Compound metabolized | Compound NOT metabolized | Compound metabolized | Compound NOT metabolized | Compound metabolized | Compound metabolized | Compound metabolized | Compound metabolized | Compound metabolized | Compound metabolized | Compound metabolized | Compound metabolized |  | Compound metabolized | Compound metabolized | Compound metabolized | Compound NOT metabolized | Compound metabolized | Compound NOT metabolized | Compound metabolized
3 | CN1CCN(CC/C=C2/c3ccccc3Sc3ccc(S(=O)(=O)N(C)C)cc32)CC1 [THIOTHIXENE] | Compound metabolized | Compound NOT metabolized |  | Compound NOT metabolized | Compound NOT metabolized | Compound NOT metabolized | Compound metabolized |  | Compound NOT metabolized | Compound NOT metabolized | Compound metabolized | Compound NOT metabolized | Compound metabolized | Compound metabolized | Compound NOT metabolized | Compound metabolized | Compound metabolized | Compound metabolized | Compound NOT metabolized | Compound metabolized
4 | CCOC(=O)[C@H](CCc1ccccc1)N[C@@H](C)C(=O)N1Cc2ccccc2C[C@H]1C(=O)O | Compound NOT metabolized | Compound metabolized |  | Compound metabolized | Compound NOT metabolized |  | Compound metabolized |  | Compound metabolized | Compound NOT metabolized | Compound NOT metabolized | Compound NOT metabolized | Compound metabolized | Compound metabolized | Compound metabolized | Compound NOT metabolized | Compound NOT metabolized | Compound NOT metabolized | Compound NOT metabolized | Compound metabolized
5 | CC#C[C@]1(O)CC[C@H]2[C@@H]3CCC4=CC(=O)CCC4=C3[C@@H](c3ccc(N(C)C)cc3)C[C@@]21C [MIFEPRISTONE] | Compound NOT metabolized | Compound NOT metabolized | Compound NOT metabolized | Compound NOT metabolized | Compound NOT metabolized | Compound NOT metabolized | Compound metabolized |  | Compound NOT metabolized | Compound NOT metabolized | Compound NOT metabolized | Compound NOT metabolized | Compound NOT metabolized |  | Compound NOT metabolized | Compound NOT metabolized | Compound NOT metabolized | Compound NOT metabolized | Compound NOT metabolized | Compound NOT metabolized
6 | CN1CCN(C2=Nc3cc(Cl)ccc3Nc3ccccc32)CC1 [CLOZAPINE] | Compound NOT metabolized | Compound NOT metabolized | Compound NOT metabolized | Compound NOT metabolized | Compound NOT metabolized |  | Compound NOT metabolized |  | Compound NOT metabolized | Compound NOT metabolized | Compound NOT metabolized | Compound NOT metabolized | Compound NOT metabolized | Compound NOT metabolized | Compound NOT metabolized | Compound NOT metabolized | Compound NOT metabolized |  | Compound NOT metabolized | Compound NOT metabolized
7 | CC(=O)SCC(Cc1ccccc1)C(=O)NCC(=O)OCc1ccccc1 (configuration not stated) [RACECADOTRIL] | Compound NOT metabolized | Compound NOT metabolized | Compound metabolized | Compound metabolized | Compound metabolized |  | Compound metabolized | Compound metabolized | Compound NOT metabolized | Compound NOT metabolized |  | Compound NOT metabolized | Compound NOT metabolized |  | Compound metabolized | Compound NOT metabolized |  | Compound metabolized | Compound metabolized | Compound metabolized
8 | O=C(O)c1cc(/N=N/c2ccc(S(=O)(=O)Nc3ccccn3)cc2)ccc1O [SULFASALAZINE] | Compound metabolized | Compound metabolized | Compound metabolized | Compound NOT metabolized | Compound metabolized | Compound metabolized | Compound metabolized | Compound metabolized | Compound metabolized | Compound metabolized |  | Compound metabolized |  | Compound metabolized | Compound metabolized | Compound metabolized | Compound metabolized | Compound metabolized | Compound metabolized | Compound metabolized
9 | O=P1(N(CCCl)CCCl)NCCCO1 (configuration not stated) [CYCLOPHOSPHAMIDE ANHYDROUS] | Compound NOT metabolized | Compound NOT metabolized | Compound NOT metabolized |  | Compound NOT metabolized |  | Compound metabolized | Compound NOT metabolized | Compound NOT metabolized | Compound NOT metabolized |  | Compound NOT metabolized | Compound NOT metabolized | Compound NOT metabolized | Compound NOT metabolized |  |  | Compound NOT metabolized | Compound NOT metabolized | Compound NOT metabolized
